Results taken from patent publication US5925645A, “2-aryl-substituted pyridines” (Bayer Aktiengesellschaft, priority 1996, dated 1999).

Tests used:
[1] = Oral activity in hamsters: HDL cholesterol and triglycerides; format: in vivo, Syrian golden hamsters
Protocol: (§1) Syrian golden hamsters from in-house breeding are anaesthetized after fasting for 24 hours (0.80 mg/kg of atropine, 0.80 mg/kg of Ketavet® s.c. 30' later 50 mg/kg of Nembutal i.p.). The jugular vein is then exposed and cannulated. The test substance is dissolved in a suitable solvent (as a rule Adalat placebo solution: 60 g of glycerol, 100 ml of H2 O, PEG-400 to 1000 ml) and administered to the animals via a PE catheter inserted into the jugular vein. The control animals receive the same volume of solvent without test substance. The vein is then tied off and the wound is closed. After various times--up to 24 hours after administration of the test substance--blood (about 250 μl) is removed from the animals by puncture of the retro-orbital venous plexus. Clotting is concluded by incubation at 4° C. overnight, then centrifugation is carried out at 6000 g for 10 minutes. In the serum thus obtained, the content of cholesterol and triglycerides is determined with the aid of modified commercially available enzyme tests (cholesterol enzymatic 14366 Merck, triglycerides 14364 Merck). Serum is suitably diluted using physiological saline solution.
(§2) 100 μl of serum dilution are mixed with 100 μl of […] in 96-well plates and incubated at room temperature for 10 minutes. The optical density is then determined at a wavelength of 492 nm using an automatic plate-reading apparatus (SLT Spectra). The triglyceride/cholesterol concentration contained in the samples is determined with the aid of a standard curve measured in parallel.
The determination of the content of HDL cholesterol is carried out after precipitation of the ApoB-containing lipoproteins by means of a reagent mixture (Sigma 352-4 HDL cholesterol reagent) according to the manufacturer's instructions.
In experiments to determine the oral activity, test substance dissolved in DMSO and suspended in 0.5% Tylose is administered orally by means of stomach tube to Syrian golden hamsters from in-house breeding. The control animals receive identical volumes of solvent without test substance. […]

[2] = biological target: T1, cholesterol ester transfer protein (CETP) (Homo sapiens, UniProt P11597); test: CETP inhibition testing: transfer of 3H-cholesterol ester from human HD lipoproteins to biotinylated LD lipoproteins (SPA); format: biochemical; settings: 3H-CE transfer HDL to biotin-LDL, 37° C., 18 h
T1 construct: CETP is obtained in partially purified form from human plasma by differential centrifugation and column chromatography; from tissue; host or cells: human plasma
T1 sequence (P11597 18-493): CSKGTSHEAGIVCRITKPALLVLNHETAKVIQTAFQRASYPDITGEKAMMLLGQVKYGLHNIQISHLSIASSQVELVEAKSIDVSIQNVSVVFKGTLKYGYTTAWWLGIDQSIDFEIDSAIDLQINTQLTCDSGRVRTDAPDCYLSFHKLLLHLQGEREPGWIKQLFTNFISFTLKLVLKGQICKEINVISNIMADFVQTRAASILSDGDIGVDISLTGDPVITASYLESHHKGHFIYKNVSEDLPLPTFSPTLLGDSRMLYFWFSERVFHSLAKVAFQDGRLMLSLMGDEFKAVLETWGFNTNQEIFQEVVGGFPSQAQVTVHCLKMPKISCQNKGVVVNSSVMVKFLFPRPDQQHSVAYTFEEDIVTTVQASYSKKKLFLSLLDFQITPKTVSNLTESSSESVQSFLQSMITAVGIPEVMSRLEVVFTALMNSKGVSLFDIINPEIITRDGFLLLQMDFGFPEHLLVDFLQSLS
Protocol: CETP is obtained in partially purified form from human plasma by differential centrifugation and column chromatography and used for the test. To this end, human plasma is adjusted to a density of 1.21 g per ml using NaBr and centrifuged at 4° C. for 18 h at 50,000 rpm. The bottom fraction (d>1.21 g/ml) is applied to a Sephadex®phenyl-sepharose 4B (Pharmacia) column, washed with 0.15M NaCl/0.001M trisHCl pH 7.4 and then eluted with dist. water. The CETP-active fractions are pooled, dialysed against 50 mM Na acetate pH 4.5 and applied to a CM-Sepharose® (Pharmacia) column. The column is then eluted using a linear gradient (0-1M NaCl). The pooled CETP fractions are dialysed against 10 mM trisHCl pH 7.4 and then further purified by chromatography on a Mono Q® column (Pharmacia).
50 ml of fresh human EDTA plasma is adjusted to a density of 1.12 using NaBr and centrifuged for 18 h at 50,000 rpm at 4° C. in a Ty 65 rotor. The upper phase is used to obtain cold LDL. The lower phase is dialysed against 3×4 l of PDB buffer (10 mM tris/HCl pH 7.4, […], 1 mM EDTA, 0.02% NaN3). 20 μl of ^3 H-cholesterol (Dupont NET-725; 1 μC/μl dissolved in ethanol) are then added per 10 ml of retentate volume and incubation is carried out at 37° C. under N2 for 72 h.
The mixture is then adjusted to the density 1.21 using NaBr and centrifuged at 20° C. at 50,000 rpm in the Ty 65 rotor for 18 h. The upper phase is recovered and the lipoprotein fractions are purified by gradient centrifugation. To this end, the isolated, labelled lipoprotein fraction is adjusted to a density of 1.26 using NaBr. Each 4 ml of this solution are covered with a layer of 4 ml of a solution of density 1.21 and 4.5 ml of a solution of density 1.063 (density solutions of PDB buffer and NaBr) in centrifuge tubes (SW 40 rotor) and then centrifuged in the SW 40 rotor for 24 h at 38,000 rpm and 20° C. The intermediate layer containing the labelled HDL lying between the densities 1.063 and 1.21 is dialyzed against 3×100 volumes of PDB buffer at 4° C.
The retentate contains radiolabelled ^3 H-CE-HDL which, adjusted to about 5×10^6 cpm per ml, is used for the test.
For testing the CETP activity, the transfer of ^3 H-cholesterol ester from human HD lipoproteins to biotinylated LD lipoproteins is measured.
The reaction is ended by addition of streptavidin-SPA® beads (Amersham) and the transferred radioactivity is determined directly in a liquid scintillation counter.
In the test mixture, 10 μl of HDL-^3 H-cholesterol ester (~50,000 cpm) are incubated at 37° C. for 18 h with 10 μl of biotin-LDL (Amersham) in 50 mM Hepes/0.15 m NaCl/0.% bovine serum albumin/0.05% NaN3 pH 7.4 with 10 μl of CETP (1 mg/ml) and 3 μl of solution of the substance to be tested (dissolved in 10% DMSO/1% RSA). 200 μl of the SPA-streptavidin bead solution (Amersham TRKQ 7005) are then added, the mixture is incubated further for 1 h with shaking and then measured in the scintillation counter. As controls, corresponding incubations with 10 μl of buffer, 10 μl of CETP at 4° C. and 10 μl of CETP at 37° C. are used. The activity transferred into the control mixtures with CETP at 37° C. is rated as 100% transfer. The substance concentration at which this transfer is reduced by half is indicated as the IC50 value.
In the following table, the IC50 values (mol/l) are indicated for CETP inhibitors: […]

[3] = system: CETP; test: Determination of the CETP activity ex vivo after intravenous administration; format: in vivo, Syrian golden hamsters; settings: 20 mg/kg intravenous
Protocol: as §1
Determination of the CETP activity
After intravenous administration of 20 mg/kg of the compound from Example 42, an about 50% reduction of the CETP activity measured ex vivo is found over a period of at least 2 hours. […]

[4] = HDL cholesterol after intravenous administration to hamsters; format: in vivo, Syrian golden hamsters; settings: 20 mg/kg intravenous; 24 hours after substance administration
Protocol: as §1, with “Clotting is concluded by incubation at 4° C. overnight, then centrifugation is carried out at 6000 g for 10 minutes.” left out, “Serum is suitably diluted using physiological saline solution.” left out
as §2, with “parallel. […]” for “parallel.”

[5] = 2×45 mg/kg per os, 24 hours after the first administration

| SMILES | IC50 [2] | further results |
| --- | --- | --- |
| OCc1c(-c2ccc(F)cc2)nc(C2CCCC2)c(C(F)c2ccc(C(F)(F)F)cc2)c1-c1ccc(F)cc1 (single isomer, unassigned) [Example 44] |  | increase of the level of HDL cholesterol versus control group [1, 5]: 20%; lowering of the level of the triglycerides versus control group [1, 5]: 70% |
| CC(C)c1nc(-c2ccc(F)cc2)c(C(C)O)c(-c2ccc(F)cc2)c1C(F)c1ccc(C(F)(F)F)cc1 (stereo not drawn) [Example 3, 4,6-Bis-(p-fluorophenyl)-2-isopropyl-3-[(p-trifluoromethylphenyl)-(fluoro)methyl]5-(1-hydroxyethyl)pyridine] | 800 nM |  |
| O=C(c1ccc(C(F)(F)F)cc1)c1c(C2CCCC2)nc(-c2cccc(C(F)(F)F)c2)c(CO)c1-c1ccc(F)cc1 [Example 14] | 70 nM |  |
| CC(O)c1c(-c2ccc(F)cc2)nc(C2CCCC2)c(C(=O)c2ccc(C(F)(F)F)cc2)c1-c1ccc(F)cc1 (stereo not drawn) [Example 26] | 900 nM |  |
| CC(C)c1nc(-c2ccc(F)cc2)c(CO)c(-c2ccc(F)cc2)c1C(F)c1ccc(C(F)(F)F)cc1 (stereo not drawn) [Example 31, 2-,4-di-(4-Fluorophenyl)-6-isopropyl-5-[4-(trifluoromethylphenyl)-fluoromethyl]-3-hydroxymethyl-pyridine] | 500 nM |  |
| OCc1c(-c2ccc(Cl)cc2)nc(C2CCCC2)c(C(F)c2ccc(C(F)(F)F)cc2)c1-c1ccc(F)cc1 (stereo not drawn) [Example 37] | 300 nM |  |

Further lines, with some results ahead:

| IC50 [2] | SMILES | further results |
| --- | --- | --- |
| 90 to 170 nM | OCc1c(-c2ccc(F)cc2)nc(C2CCCC2)c(C(F)c2ccc(C(F)(F)F)cc2)c1-c1ccc(F)cc1 (stereo not drawn) [Example 42] | period over which the about 50% reduction of CETP activity is found ([3]; ex vivo): at least 2 hours; reduction of the CETP activity measured ex vivo ([3]; over a period of at least 2 hours): about 50%; increase of HDL cholesterol values versus control group [4]: about 30%; increase of HDL cholesterol levels ([1]; 100 mg/kg per os, 24 hours after administration): 30% |
| 300 nM | OCc1c(-c2ccc(F)cc2)nc(C2CCCC2)c(C(F)c2ccc(OC(F)(F)F)cc2)c1-c1ccc(F)cc1 (stereo not drawn) [Example 45] |  |
| 400 nM | OCc1c(-c2ccc(F)cc2)nc(C2CCCCC2)c(C(F)c2ccc(C(F)(F)F)cc2)c1-c1ccc(F)cc1 (stereo not drawn) [Example 51] |  |
| 170 nM | OCc1c(-c2ccc(F)cc2)nc(C2CCCCCC2)c(C(F)c2ccc(C(F)(F)F)cc2)c1-c1ccc(F)cc1 (stereo not drawn) [Example 53] |  |
| 1000 nM | CC(C)c1nc(-c2ccc(F)cc2)c(CO)c(-c2cccc(Cl)c2)c1Cc1ccc(C(F)(F)F)cc1 [Example 63] |  |
| 80 nM | OCc1c(-c2ccc(F)cc2)nc(C2CCCC2)c(C(F)c2ccc3ccccc3c2)c1-c1ccc(F)cc1 (stereo not drawn) [Example 68] |  |
| 5000 nM | CC(C)c1nc(-c2ccc(F)cc2)c(CO)c(-c2ccc(F)cc2)c1C=Cc1cccc(C(F)(F)F)c1 [Example 83, 2,4-di-(4-Fluorophenyl)-6-isopropyl-5-[2-(3-trifluoromethylphenyl)vinyl]-3-hydroxymethyl-pyridine] |  |
